Assay results as given in the NIST ThermoML archive (doi:10.1021/acs.jced.8b00666).
± gives the expanded uncertainty stated by the source.

Conditions: Crystal; Heating/Cooling curves

| Normal melting temperature [°C] | SMILES |
| --- | --- |
| 6.80 ± 0.2 | C1CCCCC1 [cyclohexane] |
| 29.2 ± 0.21 | O.O=P(O)(O)O.O=P(O)(O)O [phosphoric acid hemihydrate] |
